Test results reported in ChEMBL document CHEMBL1201862, “PubChem BioAssay data set” (2004).
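Test compounds were applied to cells in 96-well plates for 48 hours at 5 doses. GI50 = concentration required for 50% inhibition of growth.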 Calls of active or inactive are those of the source. Cut-off read from the data, not from the text of the source: active = GI50 up to about 1.1 µM and inactive = higher.

What was measured:
Assay in all cases: NCI-60 cell line screen, 48 h
OVCAR-8 = tested on: OVCAR-8
OVCAR-3 = tested on: OVCAR-3
OVCAR-4 = tested on: OVCAR-4
CCRF-CEM = tested on: CCRF-CEM
XF498 = tested on: XF498
OVCAR-5 = tested on: OVCAR-5
786-0 = tested on: 786-0
SNB-75 = tested on: SNB-75
M14 = tested on: M14
CAKI-1 = tested on: CAKI-1
HOP-92 = tested on: HOP-92
HOP-18 = tested on: HOP-18
UACC-257 = tested on: UACC-257
UO-31 = tested on: UO-31

| Compound | GI50 (OVCAR-8) | GI50 (OVCAR-3) | GI50 (OVCAR-4) | GI50 (CCRF-CEM) | GI50 (XF498) | GI50 (OVCAR-5) | GI50 (786-0) | GI50 (SNB-75) | GI50 (M14) | GI50 (CAKI-1) | GI50 (HOP-92) | GI50 (HOP-18) | GI50 (UACC-257) | GI50 (UO-31) |
| --- | --- | --- | --- | --- | --- | --- | --- | --- | --- | --- | --- | --- | --- | --- |
| Cc1cc(O)c(C(=O)O)c2c1C(=O)c1c(O)c(OCC(O)C(O)C(O)C(O)CO)c(O)c(O)c1C2=O.NCCNCCO (centres undefined) | > 100 µM (inactive) | > 100 µM (inactive) | > 100 µM (inactive) | > 100 µM (inactive) | > 100 µM (inactive) | > 100 µM (inactive) | > 100 µM (inactive) | > 100 µM (inactive) | > 100 µM (inactive) | > 100 µM (inactive) | > 100 µM (inactive) | > 100 µM (inactive) | > 100 µM (inactive) | > 100 µM (inactive) |
| Clc1ccc(Cl)c2[s+]snc12 | 40.3 µM (inactive) | > 63.5 µM (inactive) | > 100 µM (inactive) | 50.8 µM (inactive) | > 100 µM (inactive) | > 100 µM (inactive) | > 40.9 µM (inactive) | 41.2 µM (inactive) | 55.6 µM (inactive) | > 100 µM (inactive) | > 60.7 µM (inactive) | > 100 µM (inactive) | > 93.3 µM (inactive) | > 100 µM (inactive) |
| N#CC1=C(c2ccccc2)NNC(c2ccc(Cl)cc2)CC1=O (centres undefined) |  |  | 42.9 µM (inactive) |  | 26.2 µM (inactive) | 37.1 µM (inactive) |  | 14.8 µM (inactive) | 25.6 µM (inactive) | 40.6 µM (inactive) | 43.3 µM (inactive) | > 100 µM (inactive) | 45 µM (inactive) |  |
| COC(=O)C1(c2ccc(OC)cc2)NC(c2ccccc2)C2C(=O)N(c3ccc(OC)cc3)C(=O)C21 (centres undefined) | > 100 µM (inactive) |  | > 100 µM (inactive) | > 100 µM (inactive) | > 100 µM (inactive) | > 100 µM (inactive) | > 100 µM (inactive) | > 100 µM (inactive) | > 100 µM (inactive) | > 100 µM (inactive) |  | < 0.01 µM (active) | > 100 µM (inactive) | > 100 µM (inactive) |
| COc1ccc(-c2nc(Sc3c([N+](=O)[O-])ncn3C)n[nH]2)cc1 | 2.44 µM (inactive) | 1.94 µM (inactive) | 8.24 µM (inactive) | 2.89 µM (inactive) | 2.98 µM (inactive) | 21 µM (inactive) | 3.27 µM (inactive) | 4.92 µM (inactive) | 2.17 µM (inactive) | 4.35 µM (inactive) | 2.55 µM (inactive) | 0.296 µM (active) | 3.48 µM (inactive) | 5.13 µM (inactive) |
| O=C(Cn1ccnc1[N+](=O)[O-])c1ccc(F)cc1 | > 100 µM (inactive) | > 100 µM (inactive) | > 100 µM (inactive) | > 100 µM (inactive) | > 100 µM (inactive) | > 100 µM (inactive) | > 100 µM (inactive) | > 100 µM (inactive) | > 100 µM (inactive) | > 100 µM (inactive) | > 100 µM (inactive) | > 100 µM (inactive) | > 100 µM (inactive) | > 100 µM (inactive) |
| COc1ccc(C(=O)Cc2ccc(Br)cc2)cc1OC | > 100 µM (inactive) | > 100 µM (inactive) | > 100 µM (inactive) | > 100 µM (inactive) | 31.7 µM (inactive) | > 100 µM (inactive) |  | 27.5 µM (inactive) | > 100 µM (inactive) | > 100 µM (inactive) |  | > 100 µM (inactive) | > 100 µM (inactive) | > 100 µM (inactive) |
| COC1(OC)CC2C(=O)N(Cc3ccccc3)C1C(S(=O)(=O)c1ccccc1)C2C(C)S(=O)(=O)c1ccccc1 (centres undefined) | > 100 µM (inactive) | > 100 µM (inactive) | > 100 µM (inactive) | > 100 µM (inactive) | > 100 µM (inactive) | > 100 µM (inactive) | > 100 µM (inactive) |  | > 100 µM (inactive) | > 100 µM (inactive) | 17 µM (inactive) | > 100 µM (inactive) | > 100 µM (inactive) |  |
| Cc1ccccc1NC(=O)C1C(=O)N(c2ccccc2C)C(=O)/C1=N\NC(N)=S (centres undefined) |  | > 100 µM (inactive) |  | > 100 µM (inactive) | > 100 µM (inactive) |  | > 100 µM (inactive) | > 100 µM (inactive) | > 100 µM (inactive) | > 100 µM (inactive) | > 100 µM (inactive) |  | > 100 µM (inactive) | > 100 µM (inactive) |
| COc1cccc(OC)c1C(=O)OCc1ccccc1 | > 100 µM (inactive) | > 100 µM (inactive) | > 100 µM (inactive) | > 100 µM (inactive) | > 100 µM (inactive) |  | > 100 µM (inactive) | > 100 µM (inactive) | > 100 µM (inactive) | > 100 µM (inactive) | > 100 µM (inactive) |  | > 100 µM (inactive) |  |
| N#COc1ccc(Oc2ccc(OC#N)cc2)cc1 | > 100 µM (inactive) | > 100 µM (inactive) | > 100 µM (inactive) | 22.5 µM (inactive) | > 100 µM (inactive) | > 100 µM (inactive) | 39.1 µM (inactive) | 93.5 µM (inactive) | > 100 µM (inactive) | > 100 µM (inactive) | > 100 µM (inactive) | > 100 µM (inactive) | > 100 µM (inactive) | 89.7 µM (inactive) |
| OC12CCC3(O)c4ccccc4C3C1c1ccccc12 (centres undefined) | > 100 µM (inactive) |  | > 100 µM (inactive) | > 100 µM (inactive) | > 100 µM (inactive) |  | > 100 µM (inactive) | > 100 µM (inactive) | > 100 µM (inactive) |  |  | > 100 µM (inactive) | > 100 µM (inactive) | > 100 µM (inactive) |
| CN(c1ccccc1)c1nc(=[N+]2CCCC2)ss1.[O-][Cl+3]([O-])([O-])[O-] | > 100 µM (inactive) | > 100 µM (inactive) | > 100 µM (inactive) | > 100 µM (inactive) |  |  | 6.5 µM (inactive) | > 100 µM (inactive) | > 100 µM (inactive) | > 100 µM (inactive) |  | > 100 µM (inactive) | > 100 µM (inactive) | > 100 µM (inactive) |
| CC(=O)CC(=O)ON(C)C(=O)Cc1ccccc1 | > 100 µM (inactive) | > 100 µM (inactive) | > 100 µM (inactive) | > 100 µM (inactive) | > 100 µM (inactive) | > 100 µM (inactive) | > 100 µM (inactive) | > 100 µM (inactive) | > 100 µM (inactive) | > 100 µM (inactive) | > 100 µM (inactive) |  | > 100 µM (inactive) | > 100 µM (inactive) |
| Cc1cc(C)nc(NS(=O)(=O)c2ccc(NC(=O)COC(=O)c3cccc4c(=O)c5ccccc5[nH]c34)cc2)n1 | 32.1 µM (inactive) | 23.6 µM (inactive) | 49.1 µM (inactive) | 34.3 µM (inactive) | 33.3 µM (inactive) | 20.7 µM (inactive) | 19.1 µM (inactive) | 31 µM (inactive) | 56 µM (inactive) | > 100 µM (inactive) | 31.1 µM (inactive) |  | 27.1 µM (inactive) | 61.9 µM (inactive) |
| c1ccc2c(c1)[nH]c1c2ncc2[nH]c3ccccc3c21 | 3.23 µM (inactive) | 2.54 µM (inactive) | 1.9 µM (inactive) | 3.03 µM (inactive) | 1.78 µM (inactive) | 10.9 µM (inactive) | 2.32 µM (inactive) | 3.52 µM (inactive) | 2.75 µM (inactive) | 3.73 µM (inactive) | 2.57 µM (inactive) | 2.88 µM (inactive) | > 10 µM (inactive) | 4.05 µM (inactive) |
| CN(C)C(=N)NC(=S)N(C)C | > 100 µM (inactive) |  | > 100 µM (inactive) | > 100 µM (inactive) | > 100 µM (inactive) | > 100 µM (inactive) | > 100 µM (inactive) | > 100 µM (inactive) | > 100 µM (inactive) | > 100 µM (inactive) | > 100 µM (inactive) | > 100 µM (inactive) | > 100 µM (inactive) | > 100 µM (inactive) |
| C/C(=N/Nc1ccc([N+](=O)[O-])cc1[N+](=O)[O-])C(CC(C(=O)NCc1ccccc1)/C(C)=N\Nc1ccc([N+](=O)[O-])cc1[N+](=O)[O-])C(=O)NCc1ccccc1 (centres undefined) | 2.14 µM (inactive) | 11.3 µM (inactive) | 2.4 µM (inactive) |  |  | 19.4 µM (inactive) | 3.24 µM (inactive) | 2.96 µM (inactive) | 8.04 µM (inactive) | 7.03 µM (inactive) | 2.88 µM (inactive) | 2.69 µM (inactive) | 5.21 µM (inactive) | 2.39 µM (inactive) |
| CN(C)[C@@H]1C(O)=C(C(=O)NCN2CCN(C(=N)NC(=N)N)CC2)C(=O)[C@@]2(O)C(O)=C3C(=O)c4c(O)cccc4[C@@](C)(O)[C@H]3C[C@@H]12 | 0.273 µM (active) | 0.287 µM (active) |  | 0.11 µM (active) | 0.091 µM (active) | 0.282 µM (active) |  | 0.138 µM (active) | 0.279 µM (active) | 0.274 µM (active) | 0.279 µM (active) |  | 0.324 µM (active) | 0.301 µM (active) |
| O=S1(=O)C[C@@H](O)[C@H](O)CS1 | > 100 µM (inactive) | > 100 µM (inactive) | > 100 µM (inactive) |  | > 100 µM (inactive) | > 100 µM (inactive) | > 100 µM (inactive) | > 100 µM (inactive) | > 100 µM (inactive) | > 100 µM (inactive) | > 100 µM (inactive) | > 100 µM (inactive) | > 100 µM (inactive) | > 100 µM (inactive) |
| CC(=O)OC1CC[C@@]2(C)C(CC(OC3OC(CO)C(O)C(O)C3O)[C@]3(C)C2CCC24CC23CC[C@H]4C(C)CC(O)[C@@H](O)C(C)(C)O)C1(C)C (some centres undefined) | 19.9 µM (inactive) | 16.5 µM (inactive) | > 50 µM (inactive) | 11.4 µM (inactive) |  | > 50 µM (inactive) | 13.1 µM (inactive) | 11.4 µM (inactive) | 12 µM (inactive) | 41.7 µM (inactive) | 10 µM (inactive) | 14 µM (inactive) | 11.7 µM (inactive) | > 50 µM (inactive) |
